In US9815846B2 (Merck Sharp & Dohme Corp., priority 2014, dated 2017) one finds IC50 data, which are given here for 29 compounds.

For orientation: IC50 means the concentration needed to halve the response being measured.

This test concerns the target human TrkA receptor (Homo sapiens (Human), UniProt P04629). As to the kind of experiment: DiscoverX PathHunter TrkA functional assay (NGF-stimulated U2OS cells). The format is cell-based. The settings on record: U2OS cells expressing human TrkA-PK, Shc1-EA and p75NTR; compound 1 h, then NGF at ~80% of maximal response for 3 h; luminescence.

Sequence of human TrkA receptor (P04629 33-796): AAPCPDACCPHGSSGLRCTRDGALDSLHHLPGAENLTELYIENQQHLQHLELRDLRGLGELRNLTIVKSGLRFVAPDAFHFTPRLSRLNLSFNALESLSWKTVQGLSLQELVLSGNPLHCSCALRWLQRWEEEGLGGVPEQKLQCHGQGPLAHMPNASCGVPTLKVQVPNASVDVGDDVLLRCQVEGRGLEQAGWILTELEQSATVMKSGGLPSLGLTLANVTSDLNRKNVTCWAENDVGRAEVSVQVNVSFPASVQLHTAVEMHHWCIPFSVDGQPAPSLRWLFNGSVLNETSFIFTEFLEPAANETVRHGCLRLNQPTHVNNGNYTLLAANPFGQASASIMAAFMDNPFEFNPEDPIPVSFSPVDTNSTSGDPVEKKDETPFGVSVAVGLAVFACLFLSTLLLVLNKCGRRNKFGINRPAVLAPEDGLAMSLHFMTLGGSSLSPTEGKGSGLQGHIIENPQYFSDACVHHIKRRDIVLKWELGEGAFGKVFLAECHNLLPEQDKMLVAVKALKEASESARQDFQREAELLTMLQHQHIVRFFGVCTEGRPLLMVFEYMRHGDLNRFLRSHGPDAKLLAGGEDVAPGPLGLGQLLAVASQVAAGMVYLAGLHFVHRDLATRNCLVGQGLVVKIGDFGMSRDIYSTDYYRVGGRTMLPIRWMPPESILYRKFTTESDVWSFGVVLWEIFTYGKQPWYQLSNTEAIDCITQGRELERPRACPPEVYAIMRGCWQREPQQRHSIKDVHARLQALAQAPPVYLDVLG

For `Cn1ccc(-c2cc(C(=O)Nc3cc4c(nc3-c3ccccc3)CCN(CC(N)=O)C4)ccc2C(F)(F)F)n1` [Example 140, N-(6-(2-Amino-2-oxoethyl)-2-phenyl-5,6,7,8-tetrahydro-1,6-naphthyridin-3-yl)-3-(1-methyl-1H-pyrazol-3-yl)-4-(trifluoromethyl)benzamide], it took 1.8 nM to reach half-maximal inhibition (IC50).
Then `Cn1ccc(-c2cc(C(=O)Nc3cc4c(nc3-c3ccccn3)CCNC4=O)c(F)cc2C(F)(F)F)n1` [Example 141, 2-Fluoro-5-(1-methyl-1H-pyrazol-3-yl)-N-(5-oxo-2-(pyridin-2-yl)-5,6,7,8-tetrahydro-1,6-naphthyridin-3-yl)-4-(trifluoromethyl)benzamide], with 14 nM; and `Cn1ccc(-c2cc(C(=O)Nc3cc4c(nc3-c3ccccc3)CNC(=O)C4)ccc2C(F)(F)F)n1` [Example 142, 3-(1-Methyl-1H-pyrazol-3-yl)-N-(6-oxo-2-phenyl-5,6,7,8-tetrahydro-1,7-naphthyridin-3-yl)-4-(trifluoromethyl)benzamide], with 4.7 nM; and `Cn1ccc(-c2cc(C(=O)Nc3cnc4c(c3-c3ccccc3)CCN(C(=O)CO)C4)ccc2C(F)(F)F)n1` [Example 143, N-(7-(2-Hydroxyacetyl)-4-phenyl-5,6,7,8-tetrahydro-1,7-naphthyridin-3-yl)-3-(1-methyl-1H-pyrazol-3-yl)-4-(trifluoromethyl)benzamide], with 19 nM.
`Cn1ccc(-c2cc(C(=O)Nc3cc4c(nc3-c3ccccc3)CN(C(N)=O)CC4)c(F)cc2C(F)(F)F)n1` [Example 144, 3-(2-Fluoro-5-(1-methyl-1H-pyrazol-3-yl)-4-(trifluoromethyl)benzamido)-2-phenyl-5,6-dihydro-1,7-naphthyridine-7(8H)-carboxamide] returned an IC50 of 0.26 nM.
As for `Cn1ccc(-c2cc(C(=O)Nc3cc4c(nc3-c3ccccc3)CCNC4)c(F)cc2C(F)(F)F)n1` [Example 145, 2-fluoro-5-(1-methyl-1H-pyrazol-3-yl)-N-(2-phenyl-5,6,7,8-tetrahydro-1,6-naphthyridin-3-yl)-4-(trifluoromethyl)benzamide], the figure is 2.9 nM; as for `O=C(Nc1cc2c(nc1-c1ccccc1)CCNC2)c1cc(-c2ccccn2)c(C(F)(F)F)cc1F` [Example 146, 2-fluoro-N-(2-phenyl-5,6,7,8-tetrahydro-1,6-naphthyridin-3-yl)-5-(pyridin-2-yl)-4-(trifluoromethyl)benzamide], 13 nM.
As for `CC(=O)N1CCc2nc(-c3ccccc3)c(NC(=O)c3ccc(C(F)(F)F)c(-c4ncccn4)c3)cc2C1` [Example 147, N-(6-acetyl-2-phenyl-5,6,7,8-tetrahydro-1,6-naphthyridin-3-yl)-3-(pyrimidin-2-yl)-4-(trifluoromethyl)benzamide], the figure is 14 nM.
As for `CC(=O)N1CCc2nc(-c3ccccc3)c(NC(=O)c3cc(-c4ncccn4)c(C(F)(F)F)cc3F)cc2C1` [Example 148, N-(6-acetyl-2-phenyl-5,6,7,8-tetrahydro-1,6-naphthyridin-3-yl)-2-fluoro-5-(pyrimidin-2-yl)-4-(trifluoromethyl)benzamide], the figure is 3.3 nM; as for `CS(=O)(=O)N1CCc2nc(-c3ccccc3)c(NC(=O)c3cc(-c4ncccn4)c(C(F)(F)F)cc3F)cc2C1` [Example 149, 2-fluoro-N-(6-(methylsulfonyl)-2-phenyl-5,6,7,8-tetrahydro-1,6-naphthyridin-3-yl)-5-(pyrimidin-2-yl)-4-(trifluoromethyl)benzamide], 11 nM; as for `CNC(=O)N1CCc2nc(-c3ccccc3)c(NC(=O)c3cc(-c4ncccn4)c(C(F)(F)F)cc3F)cc2C1` [Example 150, 3-(2-fluoro-5-(pyrimidin-2-yl)-4-(trifluoromethyl)benzamido)-N-methyl-2-phenyl-7,8-dihydro-1,6-naphthyridine-6(5H)-carboxamide], 14 nM.
For `CC(=O)N1CCc2nc(-c3ccccc3)c(NC(=O)c3cc(-c4ccn(C)n4)c(C(F)(F)F)cc3Cl)cc2C1` [Example 151, N-(6-acetyl-2-phenyl-5,6,7,8-tetrahydro-1,6-naphthyridin-3-yl)-2-chloro-5-(1-methyl-1H-pyrazol-3-yl)-4-(trifluoromethyl)benzamide], 0.54 nM corresponded to half-maximal inhibition (IC50).
In turn, `Cn1ccc(-c2cc(C(=O)Nc3cc4c(nc3-c3ccccc3)CCNC4=O)c(F)cc2C(F)(F)F)n1` [Example 152, 2-fluoro-5-(1-methyl-1H-pyrazol-3-yl)-N-(5-oxo-2-phenyl-5,6,7,8-tetrahydro-1,6-naphthyridin-3-yl)-4-(trifluoromethyl)benzamide] showed a concentration for half-maximal inhibition (IC50) of 0.069 nM.
In turn, `Cn1ccc(-c2cc(C(=O)Nc3cc4c(nc3-c3ccccc3)CC(=O)NC4)c(F)cc2C(F)(F)F)n1` [Example 153, 2-fluoro-5-(1-methyl-1H-pyrazol-3-yl)-N-(7-oxo-2-phenyl-5,6,7,8-tetrahydro-1,6-naphthyridin-3-yl)-4-(trifluoromethyl)benzamide] returned an IC50 of 6.8 nM.
Take `Cn1ccc(-c2cc(C(=O)Nc3cc4c(nc3-c3ccccc3)CCN(C(N)=O)C4)c(F)cc2C(F)(F)F)n1` [Example 154, 3-(2-fluoro-5-(1-methyl-1H-pyrazol-3-yl)-4-(trifluoromethyl)benzamido)-2-phenyl-7,8-dihydro-1,6-naphthyridine-6(5H)-carboxamide]: the IC50 came out at 0.76 nM.
`NC(=O)N1CCc2nc(-c3ccccc3)c(NC(=O)c3cc(-c4ncccn4)c(C(F)(F)F)cc3F)cc2C1` [Example 155, 3-(2-fluoro-5-(pyrimidin-2-yl)-4-(trifluoromethyl)benzamido)-2-phenyl-7,8-dihydro-1,6-naphthyridine-6(5H)-carboxamide] gave a concentration for half-maximal inhibition (IC50) of 2.3 nM.
As for `Cn1ccc(-c2cc(C(=O)Nc3cc4c(nc3-c3ccccc3)CCN(C(=O)CN)C4)ccc2C(F)(F)F)n1` [Example 156, N-(6-glycyl-2-phenyl-5,6,7,8-tetrahydro-1,6-naphthyridin-3-yl)-3-(1-methyl-1H-pyrazol-3-yl)-4-(trifluoromethyl)benzamide], the figure is 1 nM.
In turn, `Cn1ccc(-c2cc(C(=O)Nc3cc4c(nc3-c3ccccc3)CCN(CC(=O)O)C4)ccc2C(F)(F)F)n1` [Example 157, 2-(3-(3-(1-methyl-1H-pyrazol-3-yl)-4-(trifluoromethyl)benzamido)-2-phenyl-7,8-dihydro-1,6-naphthyridin-6(5H)-yl)acetic acid] had a 50% inhibitory concentration (IC50) of 23 nM.
As for `Cn1ccc(-c2cc(C(=O)Nc3cc4c(nc3-c3ccccc3)CCN(CCO)C4)ccc2C(F)(F)F)n1` [Example 158, N-(6-(2-hydroxyethyl)-2-phenyl-5,6,7,8-tetrahydro-1,6-naphthyridin-3-yl)-3-(1-methyl-1H-pyrazol-3-yl)-4-(trifluoromethyl)benzamide], half-maximal inhibition (IC50) was put at 7.5 nM.
With `Cn1ccc(-c2cc(C(=O)Nc3cnc4c(c3-c3ccccc3)CCNC4=O)ccc2C(F)(F)F)n1` [Example 159, 3-(1-methyl-1H-pyrazol-3-yl)-N-(8-oxo-4-phenyl-5,6,7,8-tetrahydro-1,7-naphthyridin-3-yl)-4-(trifluoromethyl)benzamide], half-maximal inhibition (IC50) required 260 nM.
Consider `Cn1ccc(-c2cc(C(=O)Nc3cnc4c(c3-c3ccccc3)CN(C(=O)CO)CC4)ccc2C(F)(F)F)n1` [Example 160, N-(6-(2-hydroxyacetyl)-4-phenyl-5,6,7,8-tetrahydro-1,6-naphthyridin-3-yl)-3-(1-methyl-1H-pyrazol-3-yl)-4-(trifluoromethyl)benzamide], for which the IC50 is 4.7 nM.
Then `Cn1ccc(-c2cc(C(=O)Nc3cc4c(nc3-c3ccccc3)CNC4=O)c(F)cc2C(F)(F)F)n1` [Example 161, 2-fluoro-5-(1-methyl-1H-pyrazol-3-yl)-N-(5-oxo-2-phenyl-6,7-dihydro-5H-pyrrolo[3,4-b]pyridin-3-yl)-4-(trifluoromethyl)benzamide], with 0.38 nM.
Regarding `O=C(Nc1cc2c(nc1-c1ccccc1)CN(C(=O)CO)C2)c1cc(-c2ncccn2)c(C(F)(F)F)cc1F` [Example 162, 2-fluoro-N-(6-(2-hydroxyacetyl)-2-phenyl-6,7-dihydro-5H-pyrrolo[3,4-b]pyridin-3-yl)-5-(pyrimidin-2-yl)-4-(trifluoromethyl)benzamide], the IC50 came out at 180 nM.
As for `C[C@@H](O)C(=O)N1CCc2nc(-c3ccccc3)c(NC(=O)c3ccc(C(F)(F)F)c(-c4ccn(C)n4)c3)cc2C1` [Example 163, (R)-N-(6-(2-hydroxypropanoyl)-2-phenyl-5,6,7,8-tetrahydro-1,6-naphthyridin-3-yl)-3-(1-methyl-1H-pyrazol-3-yl)-4-(trifluoromethyl)benzamide], the figure is 1.3 nM.
`Cn1ccc(-c2cc(C(=O)Nc3cc(-c4ccc(C(N)=O)cn4)cnc3-c3ccccc3)c(F)cc2C(F)(F)F)n1` [Example 164, 5′-(2-Fluoro-5-(1-methyl-1H-pyrazol-3-yl)-4-(trifluoromethyl)benzamido)-6′-phenyl-[2,3′-bipyridine]-5-carboxamide] displayed an IC50 of 0.51 nM.
In turn, `NC(=O)c1ccc(-c2cnc(-c3ccccc3)c(NC(=O)c3cc(-c4cc[nH]n4)c(C(F)(F)F)cc3F)c2)cc1` [Example 165, N-(5-(4-carbamoylphenyl)-2-phenylpyridin-3-yl)-2-fluoro-5-(1H-pyrazol-3-yl)-4-(trifluoromethyl)benzamide] displayed an IC50 of 2.3 nM.
Then `CNC(=O)c1ccc(-c2cnc(-c3ccccc3)c(NC(=O)c3cc(-c4cc[nH]n4)c(C(F)(F)F)cc3F)c2)cc1` [Example 166, 2-fluoro-N-(5-(4-(methylcarbamoyl)phenyl)-2-phenylpyridin-3-yl)-5-(1H-pyrazol-3-yl)-4-(trifluoromethyl)benzamide], with 12 nM; and `O=C(Nc1cc(Oc2ccccn2)cnc1-c1ccccc1)c1cc(-c2ncccn2)c(C(F)(F)F)cc1F` [Example 167, 2-fluoro-N-(2-phenyl-5-(pyridin-2-yloxy)pyridin-3-yl)-5-(pyrimidin-2-yl)-4-(trifluoromethyl)benzamide], with 24 nM; and `O=C(Nc1cc(-c2ccc(CO)cn2)cnc1-c1ccccc1)c1cc(-c2ncccn2)c(C(F)(F)F)cc1F` [Example 168, 2-fluoro-N-(5-(hydroxymethyl)-6′-phenyl-[2,3′-bipyridin]-5′-yl)-5-(pyrimidin-2-yl)-4-(trifluoromethyl)benzamide], with 0.68 nM.
